From US20240116985A1, “STAPLED PEPTIDES AND METHODS THEREOF” (priority 2020, published 2024)
Read-outs that look alike come from different tables or passages of the source.

Legend:
[1] = target: T1, full-length beta-Catenin (Uniprot ID P35222) (Homo sapiens, UniProt P35222); assay: Fluorescence polarization IC50 (beta-catenin / 5FAM-TCF4 10-53 competition); format: binding
T1 construct: 10 nM full-length beta-Catenin (Uniprot ID P35222)
T1 sequence (P35222 1-781): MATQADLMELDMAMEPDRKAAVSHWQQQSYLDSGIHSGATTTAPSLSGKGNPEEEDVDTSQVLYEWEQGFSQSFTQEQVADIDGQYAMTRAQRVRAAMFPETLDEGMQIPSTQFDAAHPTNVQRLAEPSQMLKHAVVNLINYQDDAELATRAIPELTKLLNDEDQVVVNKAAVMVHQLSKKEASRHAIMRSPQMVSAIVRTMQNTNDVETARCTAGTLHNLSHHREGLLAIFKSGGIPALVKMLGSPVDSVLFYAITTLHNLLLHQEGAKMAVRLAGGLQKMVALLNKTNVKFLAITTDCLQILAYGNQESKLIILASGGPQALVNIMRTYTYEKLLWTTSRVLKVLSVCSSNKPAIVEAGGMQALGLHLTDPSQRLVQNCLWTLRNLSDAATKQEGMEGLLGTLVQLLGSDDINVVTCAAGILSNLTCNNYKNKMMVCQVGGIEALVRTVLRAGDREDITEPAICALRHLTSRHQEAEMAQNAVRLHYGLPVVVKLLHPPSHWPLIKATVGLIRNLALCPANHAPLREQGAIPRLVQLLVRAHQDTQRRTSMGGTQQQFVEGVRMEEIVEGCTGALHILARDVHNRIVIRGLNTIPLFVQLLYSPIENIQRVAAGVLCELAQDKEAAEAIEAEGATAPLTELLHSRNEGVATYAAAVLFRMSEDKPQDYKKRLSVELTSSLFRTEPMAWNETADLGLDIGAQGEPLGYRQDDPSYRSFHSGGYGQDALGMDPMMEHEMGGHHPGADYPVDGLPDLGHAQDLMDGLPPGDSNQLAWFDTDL

[2] = target: T2, beta-catenin/TCF4 engagement (Homo sapiens, UniProt P35222); assay: Nano-BRET target engagement assay (B-cat-Halo & TCF4-Luc in HEK293 cells); format: cell-based; conditions: read-out: NanoBRET Abs IC50
T2 construct: expressed in transfected cells; host or cells: HEK293
T2 sequence (P35222 1-781): T1 sequence (P35222 1-781)

[3] = fluorescence polarization; read-out: beta-Catenin FP IC50
[4] = read-out: beta-Catenin FP IC50; fluorescence polarization

SMILES	IC50 [1, 3] [nM]	IC50 [2] [nM]	IC50 [1, 4] [nM]
CC(=O)N1CCC[C@]12CC=CCCCC1(CCCC=CCCCOC(=O)N3CC[C@@](C(=O)N[C@@H](Cc4ccsc4)C(=O)N[C@@H](Cc4csc5ccccc45)C(=O)N[C@@H](CCC(N)=O)C(N)=O)(C3)NC(=O)[C@H](CCC(=O)N3CCNCC3)NC(=O)[C@H](Cc3ccccc3)NC(=O)[C@H](C)NC(=O)[C@H](C)NC(=O)[C@H](CN(CC(=O)O)CC(F)(F)F)NC(=O)[C@H](CC(=O)O)NC1=O)NC(=O)[C@H](CC(C)(C)C)NC(=O)[C@H](CC(=O)O)NC2=O (stereo partly drawn) [I-1941, Ac-PL3-Asp-Npg-B5-Asp-TfeGA-Ala-Ala-Phe-[Ppz]GlnR-PyrS2-3Thi-BztA-Gln-NH2]	6	12900	
CC(=O)N1CCC[C@]12CC=CCCCC1(CCCC=CCCCOC(=O)N3CC[C@@](C(=O)N[C@@H](Cc4ccsc4)C(=O)N[C@@H](Cc4csc5ccccc45)C(=O)N[C@@H](CCC(N)=O)C(N)=O)(C3)NC(=O)[C@H](CCC(=O)NCc3ccccc3)NC(=O)[C@H](Cc3ccccc3)NC(=O)[C@H](C)NC(=O)[C@H](C)NC(=O)[C@H](CN(CC(=O)O)CC(F)(F)F)NC(=O)[C@H](CC(=O)O)NC1=O)NC(=O)[C@H](CC(C)(C)C)NC(=O)[C@H](CC(=O)O)NC2=O (stereo partly drawn) [I-1942, Ac-PL3-Asp-Npg-B5-Asp-TfeGA-Ala-Ala-Phe-[NHBn]GlnR-PyrS2-3Thi-BztA-Gln-NH2]	11	7900	
CC(=O)N1CCC[C@]12CC=CCCCC1(CCCC=CCCCOC(=O)N3CC[C@@](C(=O)N[C@@H](Cc4ccsc4)C(=O)N[C@@H](Cc4csc5ccccc45)C(=O)N[C@@H](CCC(N)=O)C(N)=O)(C3)NC(=O)[C@H](CCC(=O)N3CCOCC3)NC(=O)[C@H](Cc3ccccc3)NC(=O)[C@H](C)NC(=O)[C@H](C)NC(=O)[C@H](CN(CC(=O)O)CC(F)(F)F)NC(=O)[C@H](CC(=O)O)NC1=O)NC(=O)[C@H](CC(C)(C)C)NC(=O)[C@H](CC(=O)O)NC2=O (stereo partly drawn) [I-1943, Ac-PL3-Asp-Npg-B5-Asp-TfeGA-Ala-Ala-Phe-[Morph]GlnR-PyrS2-3Thi-BztA-Gln-NH2]	7	3800	
CC(=O)N1CCC[C@]12CC=CCCCC1(CCCC=CCCCOC(=O)N3CC[C@@](C(=O)N[C@@H](Cc4ccsc4)C(=O)N[C@@H](Cc4csc5ccccc45)C(=O)N[C@@H](CCC(N)=O)C(N)=O)(C3)NC(=O)[C@H](CC(C)C)NC(=O)[C@H](Cc3ccccc3)NC(=O)[C@H](C)NC(=O)[C@H](C)NC(=O)[C@H](CCC(=O)S)NC(=O)[C@H](CC(=O)O)NC1=O)NC(=O)[C@H](CC(C)(C)C)NC(=O)[C@H](CC(=O)O)NC2=O (stereo partly drawn) [I-1949, Ac-PL3-Asp-Npg-B5-Asp-GluSH-Ala-Ala-Phe-Leu-PyrS2-3Thi-BztA-Gln-NH2]	96	28500	
CC(=O)N1CCC[C@]12CC=CCCCC1(CCCC=CCCCOC(=O)N3CC[C@@](C(=O)N[C@@H](Cc4ccsc4)C(=O)N[C@@H](Cc4csc5ccccc45)C(=O)N[C@@H](CCC(N)=O)C(N)=O)(C3)NC(=O)[C@H](CC(C)C)NC(=O)[C@H](Cc3ccccc3)NC(=O)[C@H](C)NC(=O)[C@H](C)NC(=O)[C@H](CCC(=O)OCCSSc3ccccn3)NC(=O)[C@H](CC(=O)O)NC1=O)NC(=O)[C@H](CC(C)(C)C)NC(=O)[C@H](CC(=O)O)NC2=O (stereo partly drawn) [I-1951, Ac-PL3-Asp-Npg-B5-Asp-[EtSSpy]GluE-Ala-Ala-Phe-Leu-PyrS2-3Thi-BztA-Gln-NH2]	264	> 20000	
CC(=O)N1CCC[C@]12CC=CCCCC1(CCCC=CCCCOC(=O)N3CC[C@@](C(=O)N[C@@H](Cc4ccsc4)C(=O)N[C@@H](Cc4csc5ccccc45)C(=O)N[C@@H](CCC(N)=O)C(N)=O)(C3)NC(=O)[C@H](CC(C)C)NC(=O)[C@H](Cc3ccccc3)NC(=O)[C@H](C)NC(=O)[C@H](C)NC(=O)[C@H](CC(=O)O)NC(=O)[C@H](CC(=O)O)NC1=O)NC(=O)[C@H](CC(C)(C)C)NC(=O)[C@H](CC(=O)OCCSSc1ccccc1)NC2=O (stereo partly drawn) [I-1952, Ac-PL3-[EtSSPh]AspE-Npg-B5-Asp-Asp-Ala-Ala-Phe-Leu-PyrS2-3Thi-BztA-Gln-NH2]		> 20000	923
CC(=O)N1CCC[C@]12CC=CCCCC1(CCCC=CCCCOC(=O)N3CC[C@@](C(=O)N[C@@H](Cc4ccsc4)C(=O)N[C@@H](Cc4csc5ccccc45)C(=O)N[C@@H](CCC(N)=O)C(N)=O)(C3)NC(=O)[C@H](CC(C)C)NC(=O)[C@H](Cc3ccccc3)NC(=O)[C@H](C)NC(=O)[C@H](C)NC(=O)[C@H](CC(=O)O)NC(=O)[C@H](CC(=O)O)NC1=O)NC(=O)[C@H](CC(C)(C)C)NC(=O)[C@H](CC(=O)OCCSSc1ccccc1)NC2=O (stereo partly drawn) [I-1953, Ac-PL3-[EtSSPh]AspE-Npg-B5-Asp-Asp-Ala-Ala-Phe-Leu-PyrS2-3Thi-BztA-Gln-NH2]		> 20000	306
CC(=O)N1CCC[C@]12CC=CCCCC1(CCCC=CCCCOC(=O)N3CC[C@@](C(=O)N[C@@H](Cc4ccsc4)C(=O)N[C@@H](Cc4csc5ccccc45)C(=O)N[C@@H](CCC(N)=O)C(N)=O)(C3)NC(=O)[C@H](CC(C)C)NC(=O)[C@H](Cc3ccccc3)NC(=O)[C@H](C)NC(=O)[C@H](C)NC(=O)[C@H](CC(=O)O)NC(=O)[C@H](CC(=O)OCCSSc3ccccc3)NC1=O)NC(=O)[C@H](CC(C)(C)C)NC(=O)[C@H](CC(=O)O)NC2=O (stereo partly drawn) [I-1954, Ac-PL3-Asp-Npg-B5-[EtSSPh]AspE-Asp-Ala-Ala-Phe-Leu-PyrS2-3Thi-BztA-Gln-NH2]		> 20000	994
CC(=O)N1CCC[C@]12CC=CCCCC1(CCCC=CCCCOC(=O)N3CC[C@@](C(=O)N[C@@H](Cc4ccsc4)C(=O)N[C@@H](Cc4csc5ccccc45)C(=O)N[C@@H](CCC(N)=O)C(N)=O)(C3)NC(=O)[C@H](CC(C)C)NC(=O)[C@H](Cc3ccccc3)NC(=O)[C@H](C)NC(=O)[C@H](C)NC(=O)[C@H](CCC(=O)OCCSSc3ccccc3)NC(=O)[C@H](CC(=O)O)NC1=O)NC(=O)[C@H](CC(C)(C)C)NC(=O)[C@H](CC(=O)O)NC2=O (stereo partly drawn) [I-1958, Ac-PL3-Asp-Npg-B5-Asp-[EtSSPh]GluE-Ala-Ala-Phe-Leu-PyrS2-3Thi-BztA-Gln-NH2]		> 20000	1540
CCCCCCSSCCOC(=O)C[C@@H]1NC(=O)[C@]2(CC=CCCCC3(CCCC=CCCCOC(=O)N4CC[C@@](C(=O)N[C@@H](Cc5ccsc5)C(=O)N[C@@H](Cc5csc6ccccc56)C(=O)N[C@@H](CCC(N)=O)C(N)=O)(C4)NC(=O)[C@H](CC(C)C)NC(=O)[C@H](Cc4ccccc4)NC(=O)[C@H](C)NC(=O)[C@H](C)NC(=O)[C@H](CC(=O)O)NC(=O)[C@H](CC(=O)O)NC3=O)NC(=O)[C@H](CC(C)(C)C)NC1=O)CCCN2C(C)=O (stereo partly drawn) [I-1959, Ac-PL3-[EtSSHex]AspE-Npg-B5-Asp-Asp-Ala-Ala-Phe-Leu-PyrS2-3Thi-BztA-Gln-NH2]	412	> 20000	
CCCCCCSSCCOC(=O)C[C@@H]1NC(=O)C2(CCCC=CCCCOC(=O)N3CC[C@@](C(=O)N[C@@H](Cc4ccsc4)C(=O)N[C@@H](Cc4csc5ccccc45)C(=O)N[C@@H](CCC(N)=O)C(N)=O)(C3)NC(=O)[C@H](CC(C)C)NC(=O)[C@H](Cc3ccccc3)NC(=O)[C@H](C)NC(=O)[C@H](C)NC(=O)[C@H](CC(=O)O)NC1=O)CCCC=CC[C@]1(CCCN1C(C)=O)C(=O)N[C@@H](CC(=O)O)C(=O)N[C@@H](CC(C)(C)C)C(=O)N2 (stereo partly drawn) [I-1961, Ac-PL3-Asp-Npg-B5-[EtSSHex]AspE-Asp-Ala-Ala-Phe-Leu-PyrS2-3Thi-BztA-Gln-NH2]	2100	> 20000	
CCCCCCSSCCOC(=O)C[C@@H]1NC(=O)[C@H](CC(=O)O)NC(=O)C2(CCCC=CCCCOC(=O)N3CC[C@@](C(=O)N[C@@H](Cc4ccsc4)C(=O)N[C@@H](Cc4csc5ccccc45)C(=O)N[C@@H](CCC(N)=O)C(N)=O)(C3)NC(=O)[C@H](CC(C)C)NC(=O)[C@H](Cc3ccccc3)NC(=O)[C@H](C)NC(=O)[C@H](C)NC1=O)CCCC=CC[C@]1(CCCN1C(C)=O)C(=O)N[C@@H](CC(=O)O)C(=O)N[C@@H](CC(C)(C)C)C(=O)N2 (stereo partly drawn) [I-1962, Ac-PL3-Asp-Npg-B5-Asp-[EtSSHex]AspE-Ala-Ala-Phe-Leu-PyrS2-3Thi-BztA-Gln-NH2]	1600	> 20000	
CCSSCCOC(=O)C[C@@H]1NC(=O)[C@]2(CC=CCCCC3(CCCC=CCCCOC(=O)N4CC[C@@](C(=O)N[C@@H](Cc5ccsc5)C(=O)N[C@@H](Cc5csc6ccccc56)C(=O)N[C@@H](CCC(N)=O)C(N)=O)(C4)NC(=O)[C@H](CC(C)C)NC(=O)[C@H](Cc4ccccc4)NC(=O)[C@H](C)NC(=O)[C@H](C)NC(=O)[C@H](CC(=O)O)NC(=O)[C@H](CC(=O)O)NC3=O)NC(=O)[C@H](CC(C)(C)C)NC1=O)CCCN2C(C)=O (stereo partly drawn) [I-1963, Ac-PL3-[EtSSEt]AspE-Npg-B5-Asp-Asp-Ala-Ala-Phe-Leu-PyrS2-3Thi-BztA-Gln-NH2]	326	25600	
